Tests used:
α-MHC / β-MHC in the LA = assay: LA myosin isoform content (α-MHC to β-MHC conversion) in HCM pigs; format: in vivo, Yucatan mini-pigs; conditions: HCM pigs (FIG. 3), in comparison to untreated HCM pig controls
Excerpt: (§1) FIG. 1 is a schematic diagram showing the design for an experiment on the chronic effects of Compound A on HCM and on left atrial and left ventricular geometry and function in a mini-pig model of inherited HCM (“HCM pigs”). Compound A dose is increased over the first 12 weeks of the study to account for weight gain. CMPD A: Compound A. CTRL: control. cMR: cardiac MRI. PV: LV pressure and volume studies (invasive hemodynamics). RNA: LV gene expression studies. HIST: histology. BIO: LV/LA fiber biomechanical studies.
FIG. 3 is a set of graphs showing the effects of Compound A on left atrial (LA) geometry and function in HCM pigs.
(§2) Young (~1 month) cloned Yucatan mini-pigs with a heterozygous MYH7 R403Q mutation (“HCM pigs”) were treated and evaluated as shown in FIG. 1. The pigs were randomly assigned to one of two arms: untreated controls (CTRL, n=29) or daily Compound A (n=22; PO); untreated wild-type pigs (WT) served as […]. The pigs treated with Compound A were divided into two cohorts: A and B. Treated animals received progressively increasing Compound A doses (5, 7.5, 10, and 15 mg/day PO) to account for weight gain. After 14 weeks of treatment, pigs underwent in vivo cardiac MRI (cMR) imaging, including T1 mapping and extracellular volume (ECV) assessments. […]

[1] = biological target: T1, bovine cardiac synthetic myosin filaments (Bos taurus, UniProt Q9BE39); assay: DRX and SRX ATPase rates in bovine cardiac synthetic myosin filaments; format: biochemical; conditions: role: inhibitor, range of concentrations (FIG. 5), Compound A compared with mavacamten
T1 construct: single-turnover ATPase (DRX/SRX)

[2] = system: HCM pigs (heterozygous MYH7 R403Q mutation); assay: Chronic Compound A treatment in mini-pig model of inherited HCM: mortality, cTnT, cardiac MRI; format: in vivo, Yucatan mini-pigs; conditions: chronic treatment PO
Excerpt: as §1
This Example describes an in vivo study that evaluates the chronic effects of Compound A, in a genetic large-animal model of HCM.
as §2

T1 sequence (Q9BE39 whole entry): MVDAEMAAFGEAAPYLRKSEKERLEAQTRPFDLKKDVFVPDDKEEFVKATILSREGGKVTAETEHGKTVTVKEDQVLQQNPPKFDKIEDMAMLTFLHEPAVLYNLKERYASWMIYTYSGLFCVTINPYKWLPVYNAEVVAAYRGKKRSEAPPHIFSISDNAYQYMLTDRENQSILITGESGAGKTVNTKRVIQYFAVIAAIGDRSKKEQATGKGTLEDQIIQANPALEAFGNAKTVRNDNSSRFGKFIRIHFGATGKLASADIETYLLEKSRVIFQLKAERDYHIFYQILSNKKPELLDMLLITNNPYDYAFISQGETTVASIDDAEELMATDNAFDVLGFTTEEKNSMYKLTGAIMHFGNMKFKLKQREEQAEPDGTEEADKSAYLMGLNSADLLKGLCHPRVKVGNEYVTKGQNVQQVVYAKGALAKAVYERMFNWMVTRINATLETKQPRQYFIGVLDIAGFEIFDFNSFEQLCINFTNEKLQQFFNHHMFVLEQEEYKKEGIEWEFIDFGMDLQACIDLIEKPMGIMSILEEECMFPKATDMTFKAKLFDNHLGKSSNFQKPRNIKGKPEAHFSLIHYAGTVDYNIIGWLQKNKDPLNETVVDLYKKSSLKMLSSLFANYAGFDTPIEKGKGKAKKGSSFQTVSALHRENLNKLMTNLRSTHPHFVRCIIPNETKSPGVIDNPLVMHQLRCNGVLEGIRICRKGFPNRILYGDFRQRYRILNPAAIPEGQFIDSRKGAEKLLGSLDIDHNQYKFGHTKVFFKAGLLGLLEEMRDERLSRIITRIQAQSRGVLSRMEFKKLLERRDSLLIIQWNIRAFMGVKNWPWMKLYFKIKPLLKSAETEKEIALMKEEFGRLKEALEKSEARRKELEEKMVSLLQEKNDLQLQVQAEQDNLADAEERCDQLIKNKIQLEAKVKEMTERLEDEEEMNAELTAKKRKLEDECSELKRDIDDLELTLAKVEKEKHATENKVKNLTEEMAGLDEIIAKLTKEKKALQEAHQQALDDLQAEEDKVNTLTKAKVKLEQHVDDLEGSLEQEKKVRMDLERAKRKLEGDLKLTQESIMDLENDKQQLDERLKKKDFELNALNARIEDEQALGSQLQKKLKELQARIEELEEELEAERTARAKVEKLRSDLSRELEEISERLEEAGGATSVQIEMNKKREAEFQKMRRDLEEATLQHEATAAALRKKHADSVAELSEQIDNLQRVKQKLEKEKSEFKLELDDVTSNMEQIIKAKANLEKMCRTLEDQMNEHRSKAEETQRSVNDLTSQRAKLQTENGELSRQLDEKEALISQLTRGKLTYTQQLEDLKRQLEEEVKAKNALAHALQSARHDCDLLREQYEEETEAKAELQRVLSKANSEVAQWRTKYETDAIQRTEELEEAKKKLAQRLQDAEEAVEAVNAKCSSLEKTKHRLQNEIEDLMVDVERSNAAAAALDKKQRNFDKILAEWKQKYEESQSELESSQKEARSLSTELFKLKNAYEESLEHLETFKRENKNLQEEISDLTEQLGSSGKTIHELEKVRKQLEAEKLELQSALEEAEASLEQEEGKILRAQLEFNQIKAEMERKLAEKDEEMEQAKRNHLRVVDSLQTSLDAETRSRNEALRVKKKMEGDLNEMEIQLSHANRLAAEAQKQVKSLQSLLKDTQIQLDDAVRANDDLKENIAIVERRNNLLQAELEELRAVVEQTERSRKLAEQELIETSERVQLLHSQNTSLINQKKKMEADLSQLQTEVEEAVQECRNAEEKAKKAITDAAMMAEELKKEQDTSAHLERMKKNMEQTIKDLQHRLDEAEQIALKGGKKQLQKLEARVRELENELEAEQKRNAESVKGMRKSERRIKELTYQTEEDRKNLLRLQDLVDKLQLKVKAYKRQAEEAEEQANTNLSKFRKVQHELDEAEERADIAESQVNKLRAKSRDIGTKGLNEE
T1 sequence (P85100 whole entry partner): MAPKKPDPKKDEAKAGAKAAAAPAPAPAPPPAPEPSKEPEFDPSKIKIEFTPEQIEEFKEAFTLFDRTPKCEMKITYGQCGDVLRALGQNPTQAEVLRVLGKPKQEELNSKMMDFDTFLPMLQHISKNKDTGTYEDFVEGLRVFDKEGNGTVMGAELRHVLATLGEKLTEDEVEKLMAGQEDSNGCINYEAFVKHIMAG
T1 sequence (Q3SZE5 whole entry partner): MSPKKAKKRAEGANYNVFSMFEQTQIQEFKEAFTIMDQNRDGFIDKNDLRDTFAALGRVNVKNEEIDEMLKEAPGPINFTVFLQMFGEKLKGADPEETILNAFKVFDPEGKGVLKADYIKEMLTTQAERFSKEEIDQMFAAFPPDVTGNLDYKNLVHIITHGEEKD

disordered relaxed state (DRX) ATPase rate (as a fraction of control) [1] | super-relaxed state (SRX) ATPase rate (as a fraction of control) [1] | Compound | conversion of α-MHC to β-MHC in the LA (α-MHC / β-MHC in the LA) | left atrial remodeling [2]
similar | similar | CC(C)n1c(=O)cc(N[C@@H](C)c2cccc(F)c2)[nH]c1=O [Compound A] | prevented the conversion of α-MHC to β-MHC in the LA | prevented left atrial remodeling
similar | similar | CC(C)n1c(=O)cc(N[C@@H](C)c2ccccc2)[nH]c1=O [mavacamten] |  | 

Reference: patent US20260364073A1, “MAVACAMTEN AND DERIVATIVES THEREOF FOR USE IN TREATING ATRIAL DYSFUNCTION” (MyoKardia, Inc., priority 2022, published 2026)
